Where a name gives a salt, the structure may show the parent alone.
What follows are compounds tested against T1, sarkosyl insoluble (SI) α-synuclein (human α-SYN A53T) (Homo sapiens, UniProt P37840, A53T) (assay: MJFF-14-6-4-2 conformation specific ELISA of sarkosyl insoluble α-synuclein after compound treatment). Conditions: 1 μM compound; protein remaining relative to DMSO control; PFF induced A53T α-synuclein overexpressing HEK293 cells; read-out: Protein Degradation at 1 μM.
T1 construct: expressed in transfected cells
Assay type: cell-based
Method: Targeted degradation of sarkosyl insoluble (SI) α-synuclein via exemplary bifunctional compounds was assessed by MJFF-14-6-4-2 conformation specific ELISA following treatment of PFF induced A53T α-synuclein overexpressing HEK293 cells with 1 μM exemplary compound compared to DMSO vehicle control. Degradation activity of the exemplary compounds of Table 2 is expressed as % DMSO control. […] However, the effect of bifunctional targeting degraders, shown in FIG. 5, required the intact E3 ligase binding domain.
Trex293 (doxycycline inducible) cells stably expressing human α-SYN A53T (monoclonal) were plated in poly-d-lysine coated T-75 tissue culture flasks (4.5×10e6 cells/flask) in DMEM with 10% tet-free FBS, 10 μg/ml blasticidin, and 400 μg/ml zeocin. After an overnight incubation, the cells were induced to express α-SYN by treatment with 1 μg/ml doxycycline (Dox) and exemplary bifunctional compound. After a 24 hour dox induction, the medium on the cells was changed to Opti-MEM followed by treatment with α-SYN pre-formed fibrils** (PFFs)(5 μg/flask) pre-complexed with Lipofectamine 2000 transfection reagent for 4 hours. After PFF treatment, the medium was changed back to DMEM with the supplements described above and exemplary bifunctional compound for 48 hours.
Cell pellets were harvested from each flask using 0.25% trypsin followed by spinning at 500×g for 5 minutes. Each pellet was resuspended in 1 ml cold buffer H [Buffer H-10 mM Tris, 1 mM EGTA, 0.8M NaCl, 10% sucrose, pH7.4 containing 1× protease and phosphatase inhibitors] containing protease and phosphatase inhibitors. The resuspended pellets were incubated on ice for 20 minutes followed by centrifugation at 27,200×g for 20 minutes at 4° C. The supernatants were adjusted to 1% sarkosyl (Sigma) and 1% 2-mercaptoethanol followed by incubation for 1 hour at 37° C. on an orbital shaker set to 400 rpm. The samples were then spun at 150,000×g for 35 minutes at room temperature. The supernatant was removed and saved as the soluble fraction and the insoluble pellet was resuspended in 25 μl tris-buffered saline (TBS). Protein concentrations were determined by NanoDrop, and normalized protein concentrations were analyzed by WES capillary electrophoresis as well as an α-SYN oligomer ELISA.
Recombinant human α-SYN was purchased from Proteos. 1 mg aliquots were supplied at 10 mg/ml in 10 mM Tris, 50 mM NaCl, pH7.6. The aliquot was thawed on ice followed by centrifugation at 4° C. for 10 minutes at 12,000×g to pellet any insoluble material. The supernatant was removed and quantitated on a NanoDrop (A280) using Beer's Law (ε=5960 M-1 cm-1). The concentration was adjusted to 5 mg/ml in PBS followed by vortexing for 3 seconds to mix contents. The mixture was incubated in an orbital shaker set to 37° C. at 1,000 rpm for 7 days followed by aliquoting into individual use vials. Prior to addition to cells, an aliquot was thawed at room temperature, then diluted to 1 mg/ml with phosphate-buffered saline (PBS) followed by sonication for 1 minute with a probe sonicator (output 1; 90% duty cycle) in a chem hood.
Coming Costar high bind black well plates were coated with MJFR 14-6-4-2 (Abcam) at 1 μg/ml for 1 hour at 37° C. followed by washing with 1×TBS+0.1% tween-20 (TBS-T) then blocking with 3% bovine serum albumin (BSA) in TBS. After re-washing, samples were added after dilution in diluent (1% BSA/TBS-T). Non-sonicated PFF was used to generate a standard curve. The plates were incubated with sample overnight at 4° C. with shaking. The following day alkaline phosphatase (AP) conjugated MJFR 14-6-4-2 was added to the plate without washing followed by incubation at room temperature for 1 hour with shaking or rocking. The plates were then re-washed and substrate (CDP star alkaline phosphatase detection reagent) was added followed by a 30 minute incubation at room temperature. The plate was read on a luminescence plate reader. The counts were log transformed and read off the standard curve. […]

Question: For CNc1ccc(-c2nc3ccc(OCCOCCOCCOCCOCCOCC(=O)N[C@H](C(=O)N4C[C@H](O)C[C@H]4C(=O)N[C@@H](C)c4ccc(-c5scnc5C)cc4)C(C)(C)C)cc3s2)cc1 [Exemplary Compound 4, (2S,4R)-1-((S)-2-(tert-butyl)-20-((2-(4-(methylamino)phenyl)benzo[d]thiazol-6-yl)oxy)-4-oxo-6,9,12,15,18-pentaoxa-3-azaicosanoyl)-4-hydroxy-N-((S)-1-(4-(4-methylthiazol-5-yl)phenyl)ethyl)pyrrolidine-2-carboxamide], which remaining activity at 1 µM is on record?
Answer: < 35%

Question: Which remaining activity at 1 µM does the source give for CNc1ccc(-c2nc3ccc(OCCOCCOCC(=O)N[C@H](C(=O)N4C[C@H](O)C[C@H]4C(=O)N[C@@H](C)c4ccc(-c5scnc5C)cc4)C(C)(C)C)cc3s2)cc1 [Exemplary Compound 1, (2S,4R)-1-[(2S)-3,3-dimethyl-2-[[2-[2-[2-[[2-[4-(methylamino)phenyl]-1,3-benzothiazol-6-yl]oxy]ethoxy]ethoxy]acetyl]amino]butanoyl]-4-hydroxy-N-[(1S)-1-[4-(4-methylthiazol-5-yl)phenyl]ethyl]pyrrolidine-2-carboxamide] here?
Answer: < 35%

Question: How did the remaining activity at 1 µM turn out when Cc1ncsc1-c1ccc([C@H](C)NC(=O)[C@@H]2C[C@@H](O)CN2C(=O)[C@@H](NC(=O)COCCOCCOc2ccc3c(c2)Sc2cc([N+](=O)[O-])ccc2N3)C(C)(C)C)cc1 [Exemplary Compound 8, (2S,4R)-1-[(2S)-3,3-dimethyl-2-[[2-[2-[2-[(7-nitro-10H-phenothiazin-3-yl)oxy]ethoxy]ethoxy]acetyl]amino]butanoyl]-4-hydroxy-N-[(1S)-1-[4-(4-methylthiazol-5-yl)phenyl]ethyl]pyrrolidine-2-carboxamide] was run?
Answer: 70 to 120%

Question: For Cc1ncsc1-c1ccc([C@H](C)NC(=O)[C@@H]2C[C@@H](O)CN2C(=O)[C@@H](NC(=O)CN2CCN(CCN3CCC(O[C@H]4C[C@H](Oc5ccc6c(c5)Sc5cc([N+](=O)[O-])ccc5N6)C4)CC3)CC2)C(C)(C)C)cc1 [Exemplary Compound 34, (2S,4R)-1-((S)-3,3-dimethyl-2-(2-(4-(2-(4-((1r,3r)-3-((7-nitro-10H-phenothiazin-3-yl)oxy)cyclobutoxy)piperidin-1-yl)ethyl)piperazin-1-yl)acetamido)butanoyl)-4-hydroxy-N-((S)-1-(4-(4-methylthiazol-5-yl)phenyl)ethyl)pyrrolidine-2-carboxamide], which remaining activity at 1 µM is on record?
Answer: < 35%

Question: For O=C1CCC(N2C(=O)c3ccc(N4CCN(CCCO[C@H]5C[C@H](Oc6ccc7c(c6)Sc6cc([N+](=O)[O-])ccc6N7)C5)CC4)cc3C2=O)C(=O)N1 (stereo partly drawn) [Exemplary Compound 30, 2-(2,6-dioxo-3-piperidyl)-5-[4-[3-[3-[(7-nitro-10H-phenothiazin-3-yl)oxy]cyclobutoxy]propyl]piperazin-1-yl]isoindoline-1,3-dione formate], which remaining activity at 1 µM is on record?
Answer: 35 to 70%

Question: Which remaining activity at 1 µM does the source give for CN(C)c1ccc(-c2nc3ccc(O[C@H]4C[C@H](OC5CCN(CCCCCOc6ccc7c(c6)C(=O)N(C6CCC(=O)NC6=O)C7=O)CC5)C4)cc3s2)cc1 (stereo partly drawn) [Exemplary Compound 27, 2-(2,6-dioxopiperidin-3-yl)-5-[(5-[4-[(1r,3r)-3-([2-[4-(dimethylamino)phenyl]-1,3-benzothiazol-6-yl]oxy)cyclobutoxy]piperidin-1-yl]pentyl)oxy]-2,3-dihydro-1H-isoindole-1,3-dione] here?
Answer: > 120%

Question: How did the remaining activity at 1 µM turn out when COc1cc(/C=C/c2ccc3cc(OCCOCCOCCOc4ccc5c(c4)C(=O)N(C4CCC(=O)NC4=O)C5=O)ccc3n2)ccn1 (stereo not drawn) [Exemplary Compound 47, (E)-2-(2,6-dioxopiperidin-3-yl)-5-(2-(2-(2-((2-(2-(2-methoxypyridin-4-yl)vinyl)quinolin-6-yl)oxy)ethoxy)ethoxy)ethoxy)isoindoline-1,3-dione] was run?
Answer: 70 to 120%

Question: For COc1cc(/C=C/c2ccc3cc(OCCOCCOCCOCC(=O)N[C@H](C(=O)N4C[C@H](O)C[C@H]4C(=O)N[C@@H](C)c4ccc(-c5scnc5C)cc4)C(C)(C)C)ccc3n2)ccn1 [Exemplary Compound 35, (2S,4R)-1-((S)-2-(tert-butyl)-14-((2-((E)-2-(2-methoxypyridin-4-yl)vinyl)quinolin-6-yl)oxy)-4-oxo-6,9,12-trioxa-3-azatetradecanoyl)-4-hydroxy-N—((S)-1-(4-(4-methylthiazol-5-yl)phenyl)ethyl)pyrrolidine-2-carboxamide], which remaining activity at 1 µM is on record?
Answer: 35 to 70%

Question: With CN(CCCN1c2ccccc2Sc2ccccc21)CCOCCOCCOc1ccc2c(c1)C(=O)N(C1CCC(=O)NC1=O)C2=O (stereo not drawn) [Exemplary Compound 15, 5-(2-(2-(2-((3-(10H-phenothiazin-10-yl)propyl)(methyl)amino)ethoxy)ethoxy)ethoxy)-2-(2,6-dioxopiperidin-3-yl)isoindoline-1,3-dione] as the compound, how does the remaining activity at 1 µM read?
Answer: 35 to 70%

Question: How did the remaining activity at 1 µM turn out when COc1ccc2nc(-c3ccc(N4CC(OC5CCN(CCN6CCN(c7ccc8c(c7)C(=O)N(C7CCC(=O)NC7=O)C8=O)CC6)CC5)C4)cc3)sc2c1 (stereo not drawn) [Exemplary Compound 26, 2-(2,6-dioxopiperidin-3-yl)-5-(4-[2-[4-([1-[4-(6-methoxy-1,3-benzothiazol-2-yl)phenyl]azetidin-3-yl]oxy)piperidin-1-yl]ethyl]piperazin-1-yl)-2,3-dihydro-1H-isoindole-1,3-dione] was run?
Answer: 35 to 70%

Question: CN(C)c1ccc(-c2nc3ccc(O[C@H]4C[C@H](OCCCN5CCN(c6ccc7c(c6)C(=O)N(C6CCC(=O)NC6=O)C7=O)CC5)C4)cc3s2)cc1 (stereo partly drawn) [Exemplary Compound 24, 2-(2,6-dioxopiperidin-3-yl)-5-(4-[3-[(1r,3r)-3-([2-[4-(dimethylamino)phenyl]-1,3-benzothiazol-6-yl]oxy)cyclobutoxy]propyl]piperazin-1-yl)-2,3-dihydro-1H-isoindole-1,3-dione] was tested. Which remaining activity at 1 µM did it give?
Answer: > 120%

Question: With O=C1CCC(N2C(=O)c3ccc(N4CCN(CCN5CCC(O[C@H]6C[C@H](Oc7ccc8c(c7)Sc7cc([N+](=O)[O-])ccc7N8)C6)CC5)CC4)cc3C2=O)C(=O)N1 (stereo partly drawn) [Exemplary Compound 18, 2-(2,6-dioxo-3-piperidyl)-5-[4-[2-[4-[3-[(7-nitro-10H-phenothiazin-3-yl)oxy]cyclobutoxy]-1-piperidyl]ethyl]piperazin-1-yl]isoindoline-1,3-dione] as the compound, how does the remaining activity at 1 µM read?
Answer: 70 to 120%

Question: O=C1CCC(N2C(=O)c3ccc(OCCCCCN4CCC(O[C@H]5C[C@H](Oc6ccc7c(c6)Sc6cc([N+](=O)[O-])ccc6N7)C5)CC4)cc3C2=O)C(=O)N1 (stereo partly drawn) [Exemplary Compound 19, 2-(2,6-dioxo-3-piperidyl)-5-[5-[4-[3-[(7-nitro-10H-phenothiazin-3-yl)oxy]cyclobutoxy]-1-piperidyl]pentoxy]isoindoline-1,3-dione] was tested. Which remaining activity at 1 µM did it give?
Answer: 35 to 70%

Question: For CNc1ccc(-c2nc3ccc(OCCOCCOCCOCCOCC(=O)N[C@H](C(=O)N4C[C@H](O)C[C@H]4C(=O)N[C@@H](C)c4ccc(-c5scnc5C)cc4)C(C)(C)C)cc3s2)cc1 [Exemplary Compound 3, (2S,4R)-1-((S)-2-(tert-butyl)-17-((2-(4-(methylamino)phenyl)benzo[d]thiazol-6-yl)oxy)-4-oxo-6,9,12,15-tetraoxa-3-azaheptadecanoyl)-4-hydroxy-N-((S)-1-(4-(4-methylthiazol-5-yl)phenyl)ethyl)pyrrolidine-2-carboxamide], which remaining activity at 1 µM is on record?
Answer: 35 to 70%

Question: Which remaining activity at 1 µM does the source give for CN(C)c1ccc2c(c1)Sc1cc(OCCOCCOCCOCCOCCOc3ccc4c(c3)C(=O)N(C3CCC(=O)NC3=O)C4=O)ccc1N2 (stereo not drawn) [Exemplary Compound 21, 5-((14-((7-(dimethylamino)-10H-phenothiazin-3-yl)oxy)-3,6,9,12-tetraoxatetradecyl)oxy)-2-(2,6-dioxopiperidin-3-yl)isoindoline-1,3-dione] here?
Answer: 35 to 70%

From patent US12594264B2, “Modulators of alpha-synuclein proteolysis and associated methods of use” (Arvinas Operations, Inc., priority 2018, dated 2026)
